Values of other authors in US20030207846A1, “Treatment of pain, inflammation, and inflammation-related disorders with a combination of a cyclooxygenase-2 selective inhibitor and aspirin” (Pharmacia Corporation, priority 2002, published 2003).

How the values were obtained:
[1] = test system: platelet function
[2] = test system: upper GI tract; settings: low-dose 75-300 mg/day
[3] = test system: platelet aggregation and ex-vivo serum-generated thromboxane B2 production; settings: healthy human subjects

| Compound | inhibition of platelet function ([1]; 40 mg, conditions of limited compliance) | efficacy as an antiplatelet agent ([1]; 100-300 mg/day, plain or slow release form) | risk of upper GI tract complications [2] | tolerability ([3]; alone or in combination with the aspirin) | effect on the anti-platelet effects of aspirin (inhibition of platelet aggregation and ex-vivo serum-generated thromboxane B2 production) ([3]; rofecoxib 50 mg/day with aspirin 81 mg/day) |
| --- | --- | --- | --- | --- | --- |
| CC(=O)Oc1ccccc1C(=O)O [aspirin, 2-(acetyloxy)benzoic acid] | not sufficient to inhibit platelet function | very effective | increased the risk of upper GI tract complications | – | – |
| CS(=O)(=O)c1ccc(C2=C(c3ccccc3)C(=O)OC2)cc1 [rofecoxib] | – | – | – | well-tolerated | did not alter the anti-platelet effects of the aspirin |
